Assay results taken from the CheMixHub viscosity set.

Experiment: xn = mol fraction of the nth substance listed

CCCCCO + C1CCCCC1
Details | viscosity [mPa·s]
293.15 K, 100 kPa, x2 = 0.0815 | 3.56
293.15 K, 100 kPa, x2 = 0.1623 | 3.17
293.15 K, 100 kPa, x2 = 0.2416 | 2.81
293.15 K, 100 kPa, x2 = 0.3481 | 2.37
293.15 K, 100 kPa, x2 = 0.4401 | 2.06
293.15 K, 100 kPa, x2 = 0.5592 | 1.69
293.15 K, 100 kPa, x2 = 0.6501 | 1.46
293.15 K, 100 kPa, x2 = 0.7414 | 1.28
293.15 K, 100 kPa, x2 = 0.8502 | 1.1
293.15 K, 100 kPa, x2 = 0.9414 | 1.02
298.15 K, 101 kPa, x1 = 0.0229 | 0.889
298.15 K, 101 kPa, x1 = 0.0543 | 0.908
298.15 K, 101 kPa, x1 = 0.14 | 0.991
298.15 K, 101 kPa, x1 = 0.2319 | 1.064
298.15 K, 101 kPa, x1 = 0.3975 | 1.326
298.15 K, 101 kPa, x1 = 0.5045 | 1.548
298.15 K, 101 kPa, x1 = 0.6384 | 1.974
298.15 K, 101 kPa, x1 = 0.7129 | 2.264
298.15 K, 101 kPa, x1 = 0.8283 | 2.738
298.15 K, 101 kPa, x1 = 0.904 | 3.066
303.15 K, 100 kPa, x2 = 0.0815 | 2.7
303.15 K, 100 kPa, x2 = 0.1623 | 2.41
303.15 K, 100 kPa, x2 = 0.2416 | 2.15
303.15 K, 100 kPa, x2 = 0.3481 | 1.84
303.15 K, 100 kPa, x2 = 0.4401 | 1.61
303.15 K, 100 kPa, x2 = 0.5592 | 1.34
303.15 K, 100 kPa, x2 = 0.6501 | 1.18
303.15 K, 100 kPa, x2 = 0.7414 | 1.05
303.15 K, 100 kPa, x2 = 0.8502 | 0.92
303.15 K, 100 kPa, x2 = 0.9414 | 0.85
303.15 K, 101 kPa, x1 = 0.6491 | 1.531
303.15 K, 101.33 kPa, x1 = 0.0977 | 0.8877
303.15 K, 101.33 kPa, x1 = 0.2165 | 0.9922
303.15 K, 101.33 kPa, x1 = 0.3008 | 1.095
303.15 K, 101.33 kPa, x1 = 0.4012 | 1.222
303.15 K, 101.33 kPa, x1 = 0.5004 | 1.388
303.15 K, 101.33 kPa, x1 = 0.6025 | 1.586
303.15 K, 101.33 kPa, x1 = 0.7049 | 1.823
303.15 K, 101.33 kPa, x1 = 0.7922 | 2.076
303.15 K, 101.33 kPa, x1 = 0.9023 | 2.447
308.15 K, 101 kPa, x1 = 0.0229 | 0.757
308.15 K, 101 kPa, x1 = 0.0543 | 0.772
308.15 K, 101 kPa, x1 = 0.14 | 0.822
308.15 K, 101 kPa, x1 = 0.2319 | 0.894
308.15 K, 101 kPa, x1 = 0.3975 | 1.078
308.15 K, 101 kPa, x1 = 0.5045 | 1.248
308.15 K, 101 kPa, x1 = 0.6384 | 1.537
308.15 K, 101 kPa, x1 = 0.6491 | 1.452
308.15 K, 101 kPa, x1 = 0.7129 | 1.732
308.15 K, 101 kPa, x1 = 0.8283 | 2.09
308.15 K, 101 kPa, x1 = 0.904 | 2.335
313.15 K, 100 kPa, x2 = 0.0815 | 2.08
313.15 K, 100 kPa, x2 = 0.1623 | 1.88
313.15 K, 100 kPa, x2 = 0.2416 | 1.7
313.15 K, 100 kPa, x2 = 0.3481 | 1.47
313.15 K, 100 kPa, x2 = 0.4401 | 1.3
313.15 K, 100 kPa, x2 = 0.5592 | 1.11
313.15 K, 100 kPa, x2 = 0.6501 | 0.98
313.15 K, 100 kPa, x2 = 0.7414 | 0.88
313.15 K, 100 kPa, x2 = 0.8502 | 0.78
313.15 K, 100 kPa, x2 = 0.9414 | 0.72
313.15 K, 101 kPa, x1 = 0.6491 | 1.327
318.15 K, 101 kPa, x1 = 0.0229 | 0.649
318.15 K, 101 kPa, x1 = 0.0543 | 0.658
318.15 K, 101 kPa, x1 = 0.14 | 0.694
318.15 K, 101 kPa, x1 = 0.2319 | 0.758
318.15 K, 101 kPa, x1 = 0.3975 | 0.883
318.15 K, 101 kPa, x1 = 0.5045 | 1.01
318.15 K, 101 kPa, x1 = 0.6384 | 1.227
318.15 K, 101 kPa, x1 = 0.7129 | 1.364
318.15 K, 101 kPa, x1 = 0.8283 | 1.628
318.15 K, 101 kPa, x1 = 0.904 | 1.802
323.15 K, 100 kPa, x2 = 0.0815 | 1.64
323.15 K, 100 kPa, x2 = 0.1623 | 1.49
323.15 K, 100 kPa, x2 = 0.2416 | 1.36
323.15 K, 100 kPa, x2 = 0.3481 | 1.2
323.15 K, 100 kPa, x2 = 0.4401 | 1.08
323.15 K, 100 kPa, x2 = 0.5592 | 0.94
323.15 K, 100 kPa, x2 = 0.6501 | 0.85
323.15 K, 100 kPa, x2 = 0.7414 | 0.77
323.15 K, 100 kPa, x2 = 0.8502 | 0.69
323.15 K, 100 kPa, x2 = 0.9414 | 0.63
